One assay deals with human melanoma cells. The experiment in a line: Proliferation of human melanoma cells measured by Renilla luciferase activity. The class given is cell-based. Conditions: flunarizine 1 μM alone, FIG. 5. As to the method:
(§1) Wnt3a conditioned media was collected from sub-confluent melanoma cell lines, and this media was tested for its ability to activate Wnt/β-catenin signaling in UACC 1273 melanoma cells that were stably transduced with a Wnt/β-catenin-responsive firefly luciferase reporter and a constitutive Renilla luciferase gene used for normalization (Cignal TCF/LEF transcriptional reporter construct; SABiosciences, Frederick, Md.). Conditioned media was spun down to clear cell debris and then incubated with reporter cells overnight. Activation of the Wnt/β-catenin reporter was measured using a DLR assay kit (Promega; Madison, Wis.).
(§2) Flunarizine and QS11 were solubilized in dimethyl-sulfoxide (DMSO) vehicle, which was used as a control (vol/vol) for the described experiments. Drug incubations were 24-48 hours in duration.

For assay [1], the system named is Wnt/β-catenin pathway. Put plainly: Wnt/β-catenin-responsive (TCF/LEF) luciferase reporter assay in melanoma cells. The class given is cell-based, human. As to the method: as §1, §2
A TCF/LEF transcriptional reporter gene cell line used to monitor the activation of the Wnt signal transduction pathway was utilized in a high throughput screen of a library of chemical compounds to identify compounds that synergize with lithium in activating the Wnt/β-catenin pathway.
A general note: A reporter such as luciferase makes a cellular process visible.

A further assay concerns GSK-3. Conditions: cited from earlier work; for selectivity for GSK-3: literature values.
Another assay relates to B16 melanoma cells. Put plainly: Cell proliferation assay, B16 murine melanoma cells. Format: cell-based. Conditions: NaCl 20 mM, negative control, FIG. 3B. The procedure:
For cell counts by hematocytometer, cells were plated at a uniform density (usually between 10,000 to 25,000 cells per well) in a 12 or 24 well tissue culture plate in the appropriate media supplemented with 2% FBS. Cells were then incubated at 37° C. at 5% CO2 for three to seven days based on individual cell doubling time. At the end of the timecourse, cells were trypsinized, resuspended in the appropriate media, and counted using a standard hematocytometer. Dead cells were identified by 0.4% Trypan Blue stain. Cell proliferation experiments were performed with a minimum of six biologic replicates. […] For relative cell proliferation assays of B16:GFP cells incubated with lithium chloride or sodium chloride, cell proliferation was measured by relative firefly luciferase units (Promega; Madison, Wis.).

Assay [2] relates to Wnt/β-catenin pathway. Conditions: positive control, known from Zhang et al. 2007; cited from earlier work.

Data on five compounds can be found in US20110200686A1, “COMPOSITIONS OF MODULATORS OF THE WNT/B-CATENIN PATHWAY AND AN N-CINNAMYL-N'BENZHYDRYL PIPERAZINE AND THEIR USE IN TREATING NEOPLASTIC CONDITIONS INCLUDING MALIGNANT MELANOMA” (UNIVERSITY OG WASHINGTON, priority 2008, published 2011).

Consider `Fc1ccc(C(c2ccc(F)cc2)N2CCN(CC=Cc3ccccc3)CC2)cc1` [flunarizine, 1-[bis(4-fluorophenyl)methyl]-4-cinnamyl-piperazine], for which the “proliferation of human melanoma cells (Renilla luciferase activity)” value in the assay on human melanoma cells was “inhibited”. Also, in the assay on Wnt/β-catenin pathway [1] (flunarizine 1 μM, human melanoma cells, FIG. 6), the “activation of Wnt-responsive reporter together with Wnt-3a conditioned media” value is given as “synergizes with Wnt-3a conditioned media to activate a Wnt-responsive reporter”. Besides, the “enhancement of lithium-induced activation of the TCF/LEF reporter gene” value with Wnt/β-catenin pathway [1] (flunarizine with lithium, FIG. 4) was roughly 100 fold.

For `Cc1c[nH]c(-c2cnc(NCCNc3ccc(C#N)cn3)nc2-c2ccc(Cl)cc2Cl)n1` [CHIR-911], in the assay on GSK-3 (literature value (Ring et al. 2003), read-out: half-maximal effective concentration [EC50]), the EC50 is […]. Further, the “selectivity for GSK-3” value with GSK-3 is reported as […]. In the case of `[Cl-].[Na+]` [NaCl, Sodium chloride], in the assay on B16 melanoma cells, the “effect on B16 melanoma cell growth” value is reported as “no effect on cell growth”. On to `OC[C@H](Cc1ccccc1)Nc1nc(Oc2ccc3c(c2)CCC3)nc2c1ncn2Cc1ccc(-c2ccccc2)cc1` [QS11], for which the “synergy with Wnt-3a in activating the Wnt pathway” value with Wnt/β-catenin pathway [2] is on record as “act synergistically with Wnt-3a to activate the Wnt pathway”. `O=[N+]([O-])c1ccc(NCCNc2ncc(-c3ncc[nH]3)c(-c3ccc(Cl)cc3Cl)n2)nc1` [CHIR-837]: the “selectivity for GSK-3” value in the assay with GSK-3 is > 5,000 fold.
